Laboratory results: patent US20220323406A1, “METHODS AND COMPOSITIONS FOR DIFFERENTIATING STEM CELLS” (Massachusetts Institute of Technology, priority 2019, published 2022)

Columns and labels:
ENR+CD organoids = test: Primary screen: ATP (CellTiter-Glo 3D, CTG) cell number/viability, 2.5-D 384-well ENR+CD organoids; details: primary screen; for Z.CTG: standard z score;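 as to all read-outs here: compounds given at plating and again on day 3 over a 6-day differentiation from ENR+CV stem-cell-enriched precursors, ATP measured on day 6, plate median as control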
[1] = test system: ENR+CD organoids (ISC to Paneth cell differentiation); test: Primary screen: CCh-stimulated lysozyme secretion LYZ.S, 2.5-D 384-well ENR+CD organoid differentiation; type: cell-based, mouse; details: primary screen
Excerpt: (§1) High-throughput screening.

[2] = test system: ENR+CD organoids (ISC to Paneth cell differentiation); test: Primary screen: basal (non-stimulated) lysozyme secretion LYZ.NS, 2.5-D 384-well ENR+CD organoid differentiation; type: cell-based, mouse
Excerpt: as §1

[3] = dose 0.08 uM, FC vs plate median
[4] = dose 0.40 uM, FC vs plate median
[5] = dose 2.00 uM, FC vs plate median
[6] = dose 10.00 uM, FC vs plate median
[7] = primary screen, dose 0.08 uM, standard z score
[8] = primary screen, dose 0.40 uM, standard z score
[9] = primary screen, dose 2.00 uM, standard z score
[10] = primary screen, dose 10.00 uM, standard z score
[11] = primary screen, standard z score, dose 0.08 uM
[12] = primary screen, standard z score, dose 0.40 uM
[13] = primary screen, standard z score, dose 2.00 uM
[14] = primary screen, standard z score, dose 10.00 uM
[15] = dose 0.08 uM, FC relative to plate median
[16] = dose 0.40 uM, FC relative to plate median
[17] = dose 2.00 uM, FC relative to plate median
[18] = dose 10.00 uM, FC relative to plate median

COc1ccc(-c2nc3ccc(C4=NNC(=O)CC4C)cc3[nH]2)cc1 (centres unmarked) [Pimobendan]
Dose.FC.CTG (ENR+CD organoids; [3]): −0.022 log2 fold change
Dose.FC.CTG (ENR+CD organoids; [4]): 0.193 log2 fold change
Dose.FC.CTG (ENR+CD organoids; [5]): 0.206 log2 fold change
Dose.FC.CTG (ENR+CD organoids; [6]): 0.139 log2 fold change
Dose.FC.LYZ.S [1, 3]: 0.129 log2 fold change
Dose.FC.LYZ.S [1, 4]: 0.051 log2 fold change
Dose.FC.LYZ.S [1, 5]: 0.194 log2 fold change
Dose.FC.LYZ.S [1, 6]: −0.134 log2 fold change
Z.LYZ.NS [2, 7]: 0.328
Z.LYZ.NS [2, 8]: 0.546
Z.LYZ.NS [2, 9]: 1.121
Z.LYZ.NS [2, 10]: −0.577
Dose.FC.LYZ.NS ([2]; primary screen; dose 0.08 uM; FC vs plate median): 0.038 log2 fold change
Dose.FC.LYZ.NS ([2]; primary screen; dose 0.40 uM; FC vs plate median): 0.063 log2 fold change
Dose.FC.LYZ.NS ([2]; primary screen; dose 2.00 uM; FC vs plate median): 0.129 log2 fold change
Dose.FC.LYZ.NS ([2]; primary screen; dose 10.00 uM; FC vs plate median): −0.066 log2 fold change

CC1C(=O)OC2C(O)C34C5CC(C(C)(C)C)C36C(OC(=O)C6O)OC4(C(=O)O5)C12O (centres unmarked) [Ginkgolide B]
Dose.FC.CTG (ENR+CD organoids; dose 0.08 uM): −0.076 log2 fold change
Dose.FC.CTG (ENR+CD organoids; dose 0.40 uM): 0.034 log2 fold change
Dose.FC.CTG (ENR+CD organoids; dose 2.00 uM): −0.154 log2 fold change
Dose.FC.CTG (ENR+CD organoids; dose 10.00 uM): 0.177 log2 fold change
Z.CTG (ENR+CD organoids; dose 0.08 uM): −0.182
Z.CTG (ENR+CD organoids; dose 0.40 uM): 0.081
Z.CTG (ENR+CD organoids; dose 2.00 uM): −0.369
Z.CTG (ENR+CD organoids; dose 10.00 uM): 0.422
Dose.FC.LYZ.S ([1]; dose 0.08 uM): 0.034 log2 fold change
Dose.FC.LYZ.S ([1]; dose 0.40 uM): 0.047 log2 fold change
Dose.FC.LYZ.S ([1]; dose 2.00 uM): 0.033 log2 fold change
Dose.FC.LYZ.S ([1]; dose 10.00 uM): −0.035 log2 fold change
Dose.FC.LYZ.NS ([2]; primary screen, dose 0.08 uM): 0.041 log2 fold change
Dose.FC.LYZ.NS ([2]; primary screen, dose 0.40 uM): 0.109 log2 fold change
Dose.FC.LYZ.NS ([2]; primary screen, dose 2.00 uM): 0.061 log2 fold change
Dose.FC.LYZ.NS ([2]; primary screen, dose 10.00 uM): −0.037 log2 fold change
Z.LYZ.NS [2, 11]: 0.353
Z.LYZ.NS [2, 12]: 0.950
Z.LYZ.NS [2, 13]: 0.528
Z.LYZ.NS [2, 14]: −0.326

N#Cc1ccc(C(c2ccc(C#N)cc2)n2cncn2)cc1 [Letrozole]
Dose.FC.CTG (log2 fold change) (ENR+CD organoids; dose 0.08 uM): −0.013
Dose.FC.CTG (log2 fold change) (ENR+CD organoids; dose 0.40 uM): 0.101
Dose.FC.CTG (log2 fold change) (ENR+CD organoids; dose 2.00 uM): 0.099
Dose.FC.CTG (log2 fold change) (ENR+CD organoids; dose 10.00 uM): 0.171
Dose.FC.LYZ.S (log2 fold change) ([1]; dose 0.08 uM): 0.040
Dose.FC.LYZ.S (log2 fold change) ([1]; dose 0.40 uM): 0.150
Dose.FC.LYZ.S (log2 fold change) ([1]; dose 2.00 uM): 0.006
Dose.FC.LYZ.S (log2 fold change) ([1]; dose 10.00 uM): 0.006
Dose.FC.LYZ.NS (log2 fold change) ([2]; primary screen, dose 0.08 uM): 0.065
Z.LYZ.NS (standard z score) ([2]; primary screen, dose 0.08 uM): 0.570
Dose.FC.LYZ.NS (log2 fold change) ([2]; primary screen, dose 0.40 uM): 0.128
Z.LYZ.NS (standard z score) ([2]; primary screen, dose 0.40 uM): 1.115
Dose.FC.LYZ.NS (log2 fold change) ([2]; primary screen, dose 2.00 uM): 0.009
Z.LYZ.NS (standard z score) ([2]; primary screen, dose 2.00 uM): 0.082
Dose.FC.LYZ.NS (log2 fold change) ([2]; primary screen, dose 10.00 uM): −0.008
Z.LYZ.NS (standard z score) ([2]; primary screen, dose 10.00 uM): −0.068

COc1ccc2nc([S@@+]([O-])Cc3ncc(C)c(OC)c3C)[nH]c2c1 [Esomeprazole Sodium]
Dose.FC.CTG (ENR+CD organoids; dose 0.08 uM): 0.288 log2 fold change
Dose.FC.CTG (ENR+CD organoids; dose 0.40 uM): 0.199 log2 fold change
Dose.FC.CTG (ENR+CD organoids; dose 2.00 uM): 0.386 log2 fold change
Dose.FC.CTG (ENR+CD organoids; dose 10.00 uM): 0.271 log2 fold change
Dose.FC.LYZ.S ([1]; dose 0.08 uM): 0.146 log2 fold change
Dose.FC.LYZ.S ([1]; dose 0.40 uM): 0.174 log2 fold change
Dose.FC.LYZ.S ([1]; dose 2.00 uM): 0.043 log2 fold change
Dose.FC.LYZ.S ([1]; dose 10.00 uM): 0.021 log2 fold change
Dose.FC.LYZ.NS ([2]; primary screen, dose 0.08 uM): 0.086 log2 fold change
Dose.FC.LYZ.NS ([2]; primary screen, dose 0.40 uM): 0.233 log2 fold change
Dose.FC.LYZ.NS ([2]; primary screen, dose 2.00 uM): 0.034 log2 fold change
Dose.FC.LYZ.NS ([2]; primary screen, dose 10.00 uM): −0.016 log2 fold change
Z.LYZ.NS [2, 11]: 0.747
Z.LYZ.NS [2, 12]: 2.030
Z.LYZ.NS [2, 13]: 0.300
Z.LYZ.NS [2, 14]: −0.139

C#CCC(Cc1cnc2nc(N)nc(N)c2n1)c1ccc(C(=O)N[C@@H](CCC(=O)O)C(=O)O)cc1 (some centres unmarked) [Pralatrexate]
Dose.FC.CTG (ENR+CD organoids; [15]): −0.649 log2 fold change
Dose.FC.CTG (ENR+CD organoids; [16]): −0.853 log2 fold change
Dose.FC.CTG (ENR+CD organoids; [17]): −0.681 log2 fold change
Dose.FC.CTG (ENR+CD organoids; [18]): −0.922 log2 fold change
Dose.FC.LYZ.S [1, 15]: −0.183 log2 fold change
Dose.FC.LYZ.S [1, 16]: −0.176 log2 fold change
Dose.FC.LYZ.S [1, 17]: −0.173 log2 fold change
Dose.FC.LYZ.S [1, 18]: −0.215 log2 fold change
Dose.FC.LYZ.NS ([2]; primary screen, dose 0.08 uM, FC relative to plate median): −0.135 log2 fold change
Z.LYZ.NS [2, 7]: −1.173
Dose.FC.LYZ.NS ([2]; primary screen, dose 0.40 uM, FC relative to plate median): −0.162 log2 fold change
Z.LYZ.NS [2, 8]: −1.413
Dose.FC.LYZ.NS ([2]; primary screen, dose 2.00 uM, FC relative to plate median): −0.154 log2 fold change
Z.LYZ.NS [2, 9]: −1.345
Dose.FC.LYZ.NS ([2]; primary screen, dose 10.00 uM, FC relative to plate median): −0.148 log2 fold change
Z.LYZ.NS [2, 10]: −1.292

CNC(=O)[C@H](Cc1c[nH]c2ccccc12)NC(=O)[C@@H](CC(=O)NO)CC(C)C [Ilomastat (GM6001, Galardin)]
Dose.FC.CTG (log2 fold change) (ENR+CD organoids; dose 0.08 uM): 0.197
Z.CTG (standard z score) (ENR+CD organoids; dose 0.08 uM): 0.470
Dose.FC.CTG (log2 fold change) (ENR+CD organoids; dose 0.40 uM): 0.163
Z.CTG (standard z score) (ENR+CD organoids; dose 0.40 uM): 0.389
Dose.FC.CTG (log2 fold change) (ENR+CD organoids; dose 2.00 uM): 0.091
Z.CTG (standard z score) (ENR+CD organoids; dose 2.00 uM): 0.216
Dose.FC.CTG (log2 fold change) (ENR+CD organoids; dose 10.00 uM): −0.110
Z.CTG (standard z score) (ENR+CD organoids; dose 10.00 uM): −0.264
Dose.FC.LYZ.S (log2 fold change) ([1]; dose 0.08 uM): 0.214
Dose.FC.LYZ.S (log2 fold change) ([1]; dose 0.40 uM): 0.117
Dose.FC.LYZ.S (log2 fold change) ([1]; dose 2.00 uM): 0.024
Dose.FC.LYZ.S (log2 fold change) ([1]; dose 10.00 uM): −0.078
Dose.FC.LYZ.NS (log2 fold change) ([2]; primary screen, dose 0.08 uM): 0.055
Z.LYZ.NS (standard z score) ([2]; primary screen, dose 0.08 uM): 0.482
Dose.FC.LYZ.NS (log2 fold change) ([2]; primary screen, dose 0.40 uM): −0.011
Z.LYZ.NS (standard z score) ([2]; primary screen, dose 0.40 uM): −0.092
Dose.FC.LYZ.NS (log2 fold change) ([2]; primary screen, dose 2.00 uM): 0.007
Z.LYZ.NS (standard z score) ([2]; primary screen, dose 2.00 uM): 0.064
Dose.FC.LYZ.NS (log2 fold change) ([2]; primary screen, dose 10.00 uM): −0.106
Z.LYZ.NS (standard z score) ([2]; primary screen, dose 10.00 uM): −0.919
